Values after ≈ are worked out from the molar mass of the structure shown.
Experiment: in vitro
Conditions: human

Compound | CC50 (Picorana CC50) [µg/mL] | CC50 [µg/mL]
CC(C)c1ccc2c(c1)OC1(O)c3cccc(N4CCOCC4)c3C(=O)C21O (centres unmarked) [Example 142, 4b,9b-Dihydroxy-7-isopropyl-1-morpholinyl-4bH-benzo[d]indeno[1,2-b]furan-10(9bH)-one] | 18.7 (≈ 49 µM) | 
CC(C)C(=O)N1c2cc(C(C)C)ccc2C2(O)C(=O)c3ccccc3C12O (centres unmarked) [Example 145, 4b,9b-Dihydroxy-5-isobutyryl-7-isopropyl-5,9b-dihydro-4bH-indeno[1,2-b]indol-10-one] | 18.3 (≈ 50.2 µM) | 
CC(C)c1ccc2c(c1)OC1(O)c3ccc(N4CCC(O)CC4)cc3C(=O)C21O (centres unmarked) [Example 146, 4b,9b-Dihydroxy-7-isopropyl-2-(hydroxypiperidinyl)-4bH-benzo[d]indeno[1,2-b]furan-10(9bH)-one] | 1.53 (≈ 3.87 µM) | 
CC(C)c1ccc2c(c1)OC1(O)c3cccc(N4CCC(O)CC4)c3C(=O)C21O (centres unmarked) [Example 147, 4b,9b-Dihydroxy-1-(4-hydroxypiperidin-1-yl)-7-isopropyl-4bH-benzo[d]indeno[1,2-b]furan-10(9bH)-one] | 32.9 (≈ 83.1 µM) | 
COc1ccc(CN2CCN(c3ccc4c(c3)C(=O)C3(O)c5ccc(C(C)C)cc5OC43O)CC2)cc1 (centres unmarked) [Example 148, 4b,9b-Dihydroxy-7-isopropyl-2-(4-(4-methoxybenzyl)piperazin-1-yl)-4bH-benzo[d]indeno[1,2-b]furan-10(9bH)-one] | 1.72 (≈ 3.44 µM) | 
COc1ccc(CN2CCN(c3cccc4c3C(=O)C3(O)c5ccc(C(C)C)cc5OC43O)CC2)cc1 (centres unmarked) [Example 149, 4b,9b-Dihydroxy-7-isopropyl-1-(4-(4-methoxybenzyl)piperazin-1-yl)-4bH-benzo[d]indeno[1,2-b]furan-10(9bH)-one] | 8.48 (≈ 16.9 µM) | 
CC(C)c1ccc2c(c1)OC1(O)c3ccc(N(C)C)cc3C(=O)C21O (centres unmarked) [Example 150, 2-(Dimethylamino)-4b,9b-dihydroxy-7-isopropyl-4bH-benzo[d]indeno[1,2-b]-furan-10(9bH)-one] | 1.32 (≈ 3.89 µM) | 
CC(C)c1ccc2c(c1)OC1(O)c3cccc(N(C)C)c3C(=O)C21O (centres unmarked) [Example 151, 1-(Dimethylamino)-4b,9b-dihydroxy-7-isopropyl-4bH-benzo[d]indeno[1,2-b]-furan-10(9bH)-one] | 1.52 (≈ 4.48 µM) | 
CC(C)c1ccc2c(c1)OC1(O)c3ccccc3/C(=N\N)C21O (centres unmarked) [Example 152, 10-Hydrazono-7-isopropyl-9b,10-dihydro-4bH-benzo[d]indeno[1,2-b]furan-4b,9b-diol] | 0.9 (≈ 2.9 µM) | 10.5 (≈ 33.9 µM)
CC(C)c1cc(C(C)C)c2c(c1)C1(O)C(=O)c3c(N)cccc3C1(O)O2 (centres unmarked) [Example 157, 1-Amino-4b,9b-dihydroxy-6,8-diisopropyl-4bH-benzo[d]indeno[1,2-b]furan-10(9bH)-one] | > 100 | 28.5 (≈ 80.6 µM)
COc1ccc(NC(=O)NC23C(=O)c4c(N)cccc4C2(O)Oc2cc(C(C)C)ccc23)cc1 (centres unmarked) [Example 162] |  | > 10
CCCCNC(=O)NC12C(=O)c3c(N)cccc3C1(O)Oc1cc(C(C)C)ccc12 (centres unmarked) [Example 163, 1-(1-Amino-4b-hydroxy-7-isopropyl-10-oxo-9b,10-dihydro-4bH-indeno[1,2-b]benzofuran-9b-yl)-3-butylurea] |  | > 10
CC(C)c1ccc2c(c1)OC1(O)c3cccc(N)c3C(=O)C21NC(=O)Nc1ccc(F)cc1 (centres unmarked) [Example 164, 1-(1-Amino-4b-hydroxy-7-isopropyl-10-oxo-9b,10-dihydro-4bH-indeno[1,2-b]benzofuran-9b-yl)-3-(4-fluorophenyl)urea] |  | > 10
CC(C)c1ccc2c(c1)OC1(O)c3cccc(N)c3C(=O)C21NC(=O)NC(C)(C)C (centres unmarked) [Example 165] |  | > 10
CC(=O)NC12C(=O)c3c(NC=O)cccc3C1(O)Oc1cc(C(C)C)ccc12 (centres unmarked) [Example 167, N-(1-Formamido-4b-hydroxy-7-isopropyl-10-oxo-9b,10-dihydro-4bH-benzo[d]-indeno[1,2-b]furan-9b-yl)acetamide] |  | > 10
CC(C)c1ccc2c(c1)OC1(O)c3cccc(N)c3C(=O)C21NS(C)(=O)=O (centres unmarked) [Example 168, N-(1-Amino-4b-hydroxy-7-isopropyl-10-oxo-9b,10-dihydro-4bH-benzo[d]indeno[1,2-b]furan-9b-yl)methanesulfonamide] |  | > 10
CCOP(=O)(NC12C(=O)c3c(N)cccc3C1(O)Oc1cc(C(C)C)ccc12)OCC (centres unmarked) [Example 169, Diethyl (1-amino-4b-hydroxy-7-isopropyl-10-oxo-9b,10-dihydro-4bH-indeno[1,2-b]benzofuran-9b-yl)phosphoamidate] |  | > 10
CC(C)c1ccc2c(c1)OC1(O)c3cccc(N)c3C(=O)C21NC(=O)c1ccc(-c2ccccc2)cc1 (centres unmarked) [Example 172] |  | > 10
CCNC(=O)NC12C(=O)c3c(N)cccc3C1(O)Oc1cc(C(C)C)ccc12 (centres unmarked) [Example 173] |  | > 10

Compound | CC50 (Picorana CC50) [µg/mL] | CC50 [µg/mL]
CC(C)c1ccc2c(c1)OC1(O)c3cccc(N)c3C(=O)C21NS(=O)(=O)C(F)(F)F (centres unmarked) [Example 176, N-(1-Amino-4b-hydroxy-7-isopropyl-10-oxo-9b,10-dihydro-4bH-benzo[d]indeno[1,2-b]furan-9b-yl)-1,1,1-trifluoromethanesulfonamide] |  | > 10
CC(C)c1ccc2c(c1)OC1(O)c3ccccc3C(=O)C21NC=O (centres unmarked) [Example 177, N-(4b-hydroxy-7-isopropyl-10-oxo-9b,10-dihydro-4bH-indeno[1,2-b]benzofuran-9b-yl)formamide] |  | > 10
O=C1c2ccccc2C2(O)Oc3ccccc3C12NS(=O)(=O)C(F)(F)F (centres unmarked) [Example 178, 1,1,1-Trifluoro-N-(4b-hydroxy-10-oxo-9b,10-dihydro-4bH-benzo[d]indeno[1,2-b]furan-9b-yl)methanesulfonamide] |  | > 10
CC(C)c1ccc2c(c1)OC1(O)c3cccc(N)c3C(=O)C21NC(=O)Cc1ccc(-c2ccccc2)cc1 (centres unmarked) [Example 182, 2-([1,1′-Biphenyl]-4-yl)-N-(1-amino-4b-hydroxy-7-isopropyl-10-oxo-9b,10-dihydro-4bH-indeno[1,2-b]benzofuran-9b-yl)acetamide] | 6.42 (≈ 12.7 µM) | 5.85 (≈ 11.6 µM)
CC(C)c1ccc2c(c1)OC1(O)c3ccccc3C(=O)C21NC(=O)[C@@H](C)NC(=O)OC(C)(C)C (stereo partly drawn) [Example 184, tert-Butyl(2R)-1-(4b-hydroxy-7-isopropyl-10-oxo-9b,10-dihydro-4bH-benzo[d]indeno[1,2-b]furan-9b-ylamino)-1-oxopropan-2-ylcarbamate] | 36.4 (≈ 78 µM) | > 10
CC(C)c1ccc2c(c1)OC1(O)c3ccccc3C(=O)C21NC(=O)[C@@H](Cc1ccccc1)NC(=O)OC(C)(C)C (stereo partly drawn) [Example 185, tert-Butyl(2R)-1-(4b-hydroxy-7-isopropyl-10-oxo-9b,10-dihydro-4bH-benzo[d]indeno[1,2-b]furan-9b-ylamino)-1-oxo-3-phenylpropan-2-ylcarbamate] | 7.18 (≈ 13.2 µM) | > 10
CC(C)c1ccc2c(c1)OC1(O)c3cccc(N)c3C(=O)C21NC(=O)c1c(Cl)cc(Cl)cc1Cl (centres unmarked) [Example 192, N-(1-Amino-4b-hydroxy-7-isopropyl-10-oxo-9b,10-dihydro-4bH-indeno[1,2-b]benzofuran-9b-yl)-2,4,6-trichlorobenzamide] |  | > 10
CC(C)c1ccc2c(c1)OC1(O)c3cccc(N)c3C(=O)C21NC(=O)CCl (centres unmarked) [Example 194, N-(1-Amino-4b-hydroxy-7-isopropyl-10-oxo-9b,10-dihydro-4bH-benzo[d]indeno[1,2-b]furan-9b-yl)-2-chloroacetamide] |  | > 10
CCCCc1cn(C23C(=O)c4c(N)cccc4C2(O)Oc2cc(C(C)C)ccc23)nn1 (centres unmarked) [Example 196, 1-amino-9b-(4-butyl-1H-1,2,3-triazol-1-yl)-4b-hydroxy-7-isopropyl-4bH-indeno[1,2-b]benzofuran-10(9bH)-one] | 48.5 (≈ 116 µM) | 16.2 (≈ 38.7 µM)
CC(C)c1ccc2c(c1)OC1(O)c3cccc(N)c3C(=O)C21NC(=O)c1cccc2cccnc12 (centres unmarked) [Example 202, N-(1-Amino-4b-hydroxy-7-isopropyl-10-oxo-9b,10-dihydro-4bH-indeno[1,2-b]benzofuran-9b-yl)quinoline-8-carboxamide] | 9.6 (≈ 20.6 µM) | 3.24 (≈ 6.96 µM)
CC(C)c1ccc2c(c1)OC1(O)c3ccccc3C(=O)C21NC(=O)c1cc2ccccc2[nH]1 (centres unmarked) [Example 208, N-(4b-hydroxy-7-isopropyl-10-oxo-9b,10-dihydro-4bH-indeno[1,2-b]benzofuran-9b-yl)-1H-indole-2-carboxamide] |  | > 10
CC(C)c1ccc2c(c1)OC1(O)c3ccccc3C(=O)C21NC(=O)c1cnn(-c2ccccc2)c1C(F)(F)F (centres unmarked) [Example 211] |  | > 10
Cc1ccc(C(=O)NC23C(=O)c4c(N)cccc4C2(O)Oc2cc(C(C)C)ccc23)s1 (centres unmarked) [Example 216, N-(1-Amino-4b-hydroxy-7-isopropyl-10-oxo-9b,10-dihydro-4bH-indeno[1,2-b]benzofuran-9b-yl)-5-methylthiophene-2-carboxamide] | 4.75 (≈ 10.9 µM) | 9.69 (≈ 22.3 µM)
CC(C)c1ccc2c(c1)OC1(O)c3ccccc3C(=O)C21NC(=O)c1ccccn1 (centres unmarked) [Example 218, N-(4b-Hydroxy-7-isopropyl-10-oxo-9b,10-dihydro-4bH-indeno[1,2-b]benzofuran-9b-yl)picolinamide] | 8.49 (≈ 21.2 µM) | > 10
CC(C)c1ccc2c(c1)OC1(O)c3ccccc3C(=O)C21NC(=O)c1ccncn1 (centres unmarked) [Example 219, N-(4b-Hydroxy-7-isopropyl-10-oxo-9b,10-dihydro-4bH-indeno[1,2-b]benzofuran-9b-yl)pyrimidine-4-carboxamide] | 45.1 (≈ 112 µM) | > 10
CC(C)c1ccc2c(c1)OC1(O)c3ccccc3C(=O)C21NC(=O)Cc1nnn[nH]1 (centres unmarked) [Example 220, N-(4b-Hydroxy-7-isopropyl-10-oxo-9b,10-dihydro-4bH-benzo[d]indeno[1,2-b]furan-9b-yl)-2-(1H-tetrazol-5-yl)acetamide] | > 50 | > 10
CC(C)c1ccc2c(c1)OC1(O)c3ccccc3C(=O)C21NC(=O)c1nc[nH]n1 (centres unmarked) [Example 222, N-(4b-Hydroxy-7-isopropyl-10-oxo-9b,10-dihydro-4bH-benzo[d]indeno[1,2-b]furan-9b-yl)-1H-1,2,4-triazole-3-carboxamide] | 39.4 (≈ 101 µM) | > 10
CC(C)c1ccc2c(c1)OC1(O)c3ccccc3C(=O)C21NC(=O)c1cc(=O)[nH]c(=O)[nH]1 (centres unmarked) [Example 224, N-(4b-Hydroxy-7-isopropyl-10-oxo-9b,10-dihydro-4bH-benzo[d]indeno[1,2-b]furan-9b-yl)-2,6-dioxo-1,2,3,6-tetrahydropyrimidine-4-carboxamide] | > 50 | > 10
